Holding throughout (assay type): cell-based, human
For one assay, the system named is MCF-10A cells. Description: SRB cytotoxicity assay, non-tumorigenic MCF-10A. The settings on record: for Selectivity Index MCF-10A/MCF-7: IC50 MCF-10A / IC50 MCF-7; for IC50: non-tumorigenic human breast epithelial MCF-10A cells, SRB assay. From the text: The two examined human breast cancer cell lines (MCF-7 and Breast MDA-MB-231), and non-tumorigenic human breast epithelial cell line (MCF-10A) have been obtained from the American Type Culture Collection (ATCC). Assessment of cytotoxicity for target indole derivatives has been performed following the SRB colorimetric assay procedures, as reported earlier.
1. Anti-proliferative action toward human breast cell lines
The two examined human breast cancer cell lines (MCF-7 and Breast MDA-MB-231), and non-tumorigenic human breast epithelial cell line (MCF-10A) have been obtained from American Type Culture Collection (ATCC). The cells were maintained in Dulbecco's modified Eagle's medium (DMEM) supplemented with 10% heat inactivated fetal calf serum (GIBCO), penicillin (100 U/ml) and streptomycin (100 µg/ml) at 37 °C in humidified atmosphere containing 5% CO2. Cells at a concentration of 0.50 x 106 were grown in a 25 cm2 flask in 5 ml of culture medium.
The anti-proliferative activity of the tested compounds was measured in vitro using the Sulfo-Rhodamine-B stain (SRB) assay. Briefly, Cells were inoculated in 96-well microtiter plate (5X104 cells/ well) for 24 h before treatment with the tested compounds to allow attachment of cell to the wall of the plate. Tested compounds were dissolved in DMSO at 1 mg/ml immediately before use and diluted to the appropriate volume just before addition to the cell culture. Different concentrations of tested compounds, doxorubicin and sorafenib were added to the cells (three wells were prepared for each individual dose). Cells were incubated with the compounds for 48 h at 37°C and in atmosphere of 5% CO2. After 48 h cells were fixed, washed, and stained for 30 min with 0.4% (w/v) SRB dissolved in 1% acetic acid. Unbound dye was removed by four washes with 1% acetic acid, and attached stain was recovered with Tris-EDTA buffer. Color intensity was measured in an ELISA reader. The relation between percent of surviving fraction and drug concentration is plotted to get the survival curve for each cell line. […]
(Sulforhodamine B stains cellular protein and so reports cell mass.)

In a further assay the test system is Bax. In words: ELISA immunoassay, Bax level. The settings on record: MCF-7 cells; for Bax: IC50 concentration, 48 h. The source says:
(§1) Synchronization of the mitochondrial pathway is headed by the Bcl-2 family of proteins. These proteins are classified into two groups: anti-apoptotic proteins exemplified by Bcl-2 protein and the counteracting pro-apoptotic proteins including Bax protein [21]. As induction of the apoptotic machinery is one of the most useful strategies in cancer therapy, we investigated the effect of our compounds to boost the pro-apoptotic protein; Bax and reduce the anti-apoptotic protein; Bcl-2 in an attempt to explore the underlying mechanism for their cytotoxic activity (Table 1). […] Fortunately, both compounds markedly boosted the level of Bax by 8.3- and 6.4-fold, respectively (Table 4, Figure 3).
(§2) Effects of treatment of breast cancer MCF-7 cells with bis-indoles 7e and 9a on the expression levels of the pro-apoptotic markers (Bax, caspase-3, and p53) in addition to the anti-apoptotic protein Bcl-2 marker was assessed by the use of ELISA colorimetric kits as per the manufacturer’s instructions, as described earlier.
(§3) The levels of the pro-apoptotic markers (Bax, caspase-3 and p53) as well as the anti-apoptotic marker Bcl-2 were determined using ELISA colorimetric kits per the manufacturer’s instructions. Breast cancer MCF-7 cells were cultured as a monolayer in T-25 flasks and were seeded to attain 30% confluency prior to treatment. Cells were […]
(§4) At the end of treatment, cells were collected via trypsinization and centrifuged at 10,000 rpm. The pellet was then rinsed with PBS and lysed in RIPA lysis buffer at 4 °C for 45 min, then centrifuged at 14,000 rpm for 20 min to remove the cellular debris. Lysates were then collected and stored at −80 °C for later protein determination using Pierce BCA Protein Assay Kit according to manufacturer’s recommendations.
(§5) The cell lysate was diluted 10 times, and 100 μL ([…]) was added to the wells of four separate microtiter plates for the four ELISA kits that were pre-coated with primary antibodies specific to Bax, Bcl-2, caspase-3 and p53 proteins, respectively. A secondary biotin-linked antibody specific to the protein captured by the primary antibody was further added to bind the captured protein, forming a “sandwich” of specific antibodies around the desired protein in the cell lysate. The streptavidin-HRP complex was then used to bind the biotin-linked secondary antibody through its streptavidin portion. The HRP domain reacted with the added TMB substrate to form a colored product that measured at 450 nm by a plate reader ChroMate-4300 after the reaction was terminated via the addition of stop solution. […]
Breast […]
cancer MCF-7 cells were cultured to a monolayer then treated with bis-indoles 7e and 9a at their IC50 concentration. […]
A general note: In an ELISA, binding on a coated surface is turned into a signal by an enzyme label.

Another assay has as its system MCF-7 cells. Description: Cell cycle analysis by DNA flow cytometry. The settings on record: IC50 concentration; for %G0-G1 / %G2/M / %S / %Sub-G1: 24 h. As for the experimental part: Anticancer agents exert their cytotoxic action by aborting cellular proliferation at certain checkpoints. These checkpoints are distinguishable phases in the cell cycle, whose suppression results in termination of the cell proliferation.
The influence of bis-indoles 7e and 9a on cell cycle progression was examined in breast cancer MCF-7 cells, after 24 h of treatment, through DNA flow cytometric assay by the use of BD FACS Caliber flow cytometer, as described previously. The cell cycle distributions were calculated using CellQuest software (Becton Dickinson). […]
The two examined human breast cancer cell lines (MCF-7 and Breast MDA-MB-231), and non-tumorigenic human breast epithelial cell line (MCF-10A) have been obtained from American Type Culture Collection (ATCC). The cells were maintained in Dulbecco's modified Eagle's medium (DMEM) supplemented with 10% heat inactivated fetal calf serum (GIBCO), penicillin (100 U/ml) and streptomycin (100 µg/ml) at 37 °C in humidified atmosphere containing 5% CO2. Cells at a concentration of 0.50 x 106 were grown in a 25 cm2 flask in 5 ml of culture medium. […]
Breast cancer MCF-7 cells were treated with bis-indoles 7e and 9a for 24 h (at their IC50 concentration), and then cells were washed twice with ice-cold phosphate buffered saline (PBS). Subsequently, the treated cells were collected by centrifugation, fixed in ice-cold 70% (v/v) ethanol, washed with PBS, re-suspended with 100 μg/mL RNase, stained with 40 μg/mL PI, and analyzed by flow cytometry using FACS Calibur (Becton Dickinson, BD, Franklin Lakes, NJ, USA). The cell cycle distributions were calculated using CellQuest software 5.1 (Becton Dickinson).
In general terms: Flow cytometry measures light scatter and fluorescence of single cells or particles in a stream.

The subject of another assay is Bcl-2. In words: ELISA immunoassay, Bcl-2 level. The settings on record: MCF-7 cells; for Bcl-2: IC50 concentration, 48 h.
From the text: as §1, §2, §3, §4, §5

Consider two compounds from publication PMC7230731 (Marine Drugs, 2020).

SMILES strings stand for the structures.

`O=C(Cc1c[nH]c2ccccc12)NN=C1C(=O)Nc2ccc([N+](=O)[O-])cc21` [Compound 7e, 2-(1H-Indol-3-yl)-N′-(5-nitro-2-oxoindolin-3-ylidene)acetohydrazide]: in the assay on MCF-10A cells, the “Selectivity Index MCF-10A/MCF-7” value turned out to be 38.7 and the IC50 (as a rule, the midpoint of a concentration-inhibition curve) came out at 17.1 µM. In the assay with Bax, the “increase of Bax level vs control” value is recorded as 8.3 fold and the Bax is listed as 318.0 ± 10.5 pg/mg of Total Protein. Moreover, in the assay with MCF-7 cells, the “augmentation of proportion of cells in G2/M phase vs control” value came to 3 fold, the “augmentation of proportion of cells in Sub-G1 phase vs control” value is 18.77 fold, the “%G0-G1” value is 31.66% and the “%G2/M” value came out at 42.9%. Also, in the assay with MCF-7 cells, the “%S” value is 25.44% and the “%Sub-G1” value is 33.61%. Moreover, in the assay on Bcl-2, the “decrease of Bcl-2 level vs control” value worked out at 2.25 fold and the Bcl-2 is on record as 2.07 ± 0.14 ng/mg of Total Protein.
Take `C=CCN1C(=O)C(=NNC(=O)Cc2c[nH]c3ccccc23)c2ccccc21` [Compound 9a, N′-(1-Allyl-2-oxoindolin-3-ylidene)-2-(1H-indol-3-yl)acetohydrazide]: in the assay with MCF-10A cells, the “Selectivity Index MCF-10A/MCF-7” value turned out to be 18.3 and the IC50 stood at 23.5 µM. For the same compound, in the assay on Bax, the “increase of Bax level vs control” value is 6.4 fold and the Bax is given as 243.6 ± 12.4 pg/mg of Total Protein. In addition, in the assay with MCF-7 cells, the “augmentation of proportion of cells in G2/M phase vs control” value was 2.21 fold, the “augmentation of proportion of cells in Sub-G1 phase vs control” value was 13.42 fold, the “%G0-G1” value was 43.82% and the “%G2/M” value is given as 31.27%. In addition, in the assay with MCF-7 cells, the “%S” value is 24.91% and the “%Sub-G1” value worked out at 24.02%. In addition, in the assay on Bcl-2, the “decrease of Bcl-2 level vs control” value worked out at 1.74 fold and the Bcl-2 is reported as 2.67 ± 0.16 ng/mg of Total Protein.
